{"source": "patent US20220370636A1", "about": "“NICOTINAMIDE ADENINE DINUCLEOTIDE ACTIVATOR AND USE THEREOF” (University of South Florida, priority 2021, published 2022)", "key": {"C2C12 cells": {"tested_on": "C2C12 cells", "assay": "LPS induced LDH release in C2C12 skeletal myotubes", "format": "cell-based, mouse", "conditions": "P7C3 1 μM 24 hours"}, "db/db mice hearts": {"tested_on": "db/db mice hearts", "assay": "Western blotting of db/db heart lysates", "format": "in vivo", "conditions": "vs vehicle", "description": "Western blotting. For studies aimed to assess the insulin stimulated AKT phosphorylation, following four-week P7C3 treatment, mice were injected with Novolin R human insulin (1 Unit/kg body weight, i.p.), and hearts were collected after 5 minutes for Western blot analysis. Protein lysates for Western blotting were prepared from mouse hearts as described previously. Equivalent amounts of protein were loaded and resolved using 12% precast polyacrylamide gels (BioRad, CA, USA). Successful transfer of proteins was detected using Ponceau S (Sigma-Aldrich, MO, USA), and blots were probed with mouse monoclonal primary antibody for phospho AKT^ser473 (p-AKT), total AKT (t-AKT), phospho eNOS^ser1177 (p-eNOS), total eNOS (t-eNOS), Beclin1, and GAPDH (Cell signaling, MA, USA). HRP conjugated Rabbit anti-mouse antibody (Millipore) was used as a secondary antibody. Target protein band densities were quantified using Image J software."}, "db/db mice [1]": {"tested_on": "db/db mice", "assay": "qPCR gene expression of gastrocnemius muscle and MyHC1 myofibre staining in db/db mice", "format": "in vivo", "description": "Quantitative real-time PCR. Total RNA was isolated from GAS muscle using the Exiqon miRCURY RNA Isolation kit (Exiqon, Mass., USA) according to the manufacturer's protocol. Complimentary DNA from total RNA was synthesized with iScript cDNA synthesis kit (Bio-Rad Laboratories, CA, USA) and quantitative real-time PCR (qPCR) analysis was performed on key transcriptome targets using iTaq Universal SYBR Green Supermix (Bio-Rad Laboratories, CA, USA). The cDNA synthesis and qPCR procedures were performed as described previously. The mouse HPRT gene was used as an internal control.\nMyofibre staining. The 10 μm thick transverse serial cryosections of TA muscles were cut at the mid-belly region using Microm cryostat ma-chine. Briefly, the tissue sections were blocked with 0.2% bovine serum albumin (BSA) and 10% normal sheep serum (NSS) in PBS-Triton X100 (PBST) for 1 h at RT. All washes were carried out with PBS. Following washing, the sections were incubated in 5 μg/mL of mouse monoclonal primary antibody against myosin heavy chain type-1 (A4.840s DSHB, IA, USA) in 0.2% BSA and 5% NSS antibody dilution buffer in PBST overnight at 4° C. After washing, the sections were then fixed with 10% neutral buffered formalin for 5 min at RT, washed and incubated in 1:300 dilution of biotinylated sheep anti-mouse IgG (ab6807, Abcam, Mass., USA) and 1:1000 dilution of rabbit anti-laminin (L9393, Sigma-Aldrich, MO, USA) in the antibody dilution buffer for 1 h at RT. Following washes, the tissue sections were then incubated in 1:400 dilution of streptavidin AF488 conjugate and goat anti-rabbit AF594 (Invitrogen, CA, USA) and then washed and mounted with Prolong gold anti-fade mounting medium with DAPI (Invitrogen, CA, USA). Images were obtained at ×10 and ×20 magnifications with the Olympus IX73 inverted microscope using CellSens Standard software (Olympus Soft Imaging Solution, USA) and the MyHC1 positive myofibres were quantified with ImageJ software."}, "db/db mice [2]": {"tested_on": "db/db mice", "assay": "LC-MS/MS lipidomics of gastrocnemius muscle in db/db mice", "format": "in vivo", "description": "Lipidomics. The lipidomic profiling of GAS muscle was performed using a liquid chromatography-tandem mass spectrometry (LC-MS/MS) method as described previously. Briefly, the GAS muscle samples were collected, and flash frozen in liquid nitrogen. Around 50-100 mg of the muscle tissue was homogenized using a bead-beating method, then the obtained supernatant was further cleaned and concentrated by solid phase extraction. The extracted LMs samples were dried under vacuum and stored at […] for future LC-MS/MS analysis. The dried extracts were reconstituted with 50 μL of methanol, and 10 μL was injected into LC-MS/MS to observe lipid profiles in GAS muscles. The LC-MS/MS system components were from Shimadzu Scientific Instruments Inc. (Columbia, Md., USA). All analyses and data processing were completed with the use of Shimadzu Lab Solutions V5.91 software (Shimadzu Scientific, Tokyo, Japan)."}, "db/db mice [3]": {"tested_on": "db/db mice", "assay": "Fasting blood glucose and GTT in db/db mice (Example 5)", "format": "in vivo", "source_text": "Fasting blood glucose. Mice were fasted overnight, and the tail vein blood was used for measuring the blood glucose levels of the diabetic mice treated with either Vehicle (db/db Veh) or P7C3 (db/db P7C3) for 4 weeks.\nGlucose tolerance test. […] Blood samples were obtained by the submandibular puncture technique."}, "Sirt1": {"tested_on": "Sirt1", "assay": "Sirt1 deacetylase activity in db/db heart lysates", "format": "in vivo, mice", "conditions": "vs vehicle controls", "description": "Sirt1 deacetylase activity. Sirt1 deacetylase activity was measured in the whole heart lysates from the vehicle and P7C3 treated db/db mice according to the manufacturer's protocol using a deacetylase fluorometric assay kit (Sigma-Aldrich, MO, USA). The fluorescence intensity was measured at 440 nm (excitation, 340 nm)."}, "[4]": {"conditions": "gastrocnemius muscle, vs db-Veh"}, "[5]": {"conditions": "gastrocnemius muscle, vs db-Veh and C57Bl/6J"}, "[6]": {"conditions": "gastrocnemius muscle, vs db-Veh and WT"}}, "data": [{"smiles": "OC(CNc1ccccc1)Cn1c2ccc(Br)cc2c2cc(Br)ccc21", "note": "(centres unmarked) [P7C3, 3,6-Dibromo-a-[(phenylamino)methyl]-9H-carbazole-9-ethanol]", "values": [{"measurement": "LPS induced LDH release (inflammation in vitro)", "setting": "C2C12 cells", "result": "attenuated"}, {"measurement": "p-AKT signaling in cardiac tissue", "setting": "db/db mice hearts; 10 mg/kg/day i.p.", "result": "significantly increased"}, {"measurement": "Beclin 1 protein expression", "setting": "db/db mice hearts", "result": "significant increase"}, {"measurement": "p-eNOS levels in cardiac tissue", "setting": "db/db mice hearts", "result": "significantly increased"}, {"measurement": "TNFα expression in skeletal muscle", "setting": "db/db mice [1]; gastrocnemius muscle, db-Veh vs db-P7C3", "result": "high levels in db-Veh compared with db-P7C3"}, {"measurement": "CD36 expression", "setting": "db/db mice [1]; [4]", "result": "significantly down-regulated"}, {"measurement": "Fabp1 expression", "setting": "db/db mice [1]; [4]", "result": "significantly down-regulated"}, {"measurement": "Fgf21 expression", "setting": "db/db mice [1]; [4]", "result": "significant reduction"}, {"measurement": "MyHC type 1 (MyHC1) expression levels", "setting": "db/db mice [1]; [4]", "result": "significant de-crease"}, {"measurement": "Cpt1 expression", "setting": "db/db mice [1]; [5]", "result": "significantly up-regulated"}, {"measurement": "Pdk4 expression", "setting": "db/db mice [1]; [5]", "result": "significantly up-regulated"}, {"measurement": "MyHC-2a expression levels", "setting": "db/db mice [1]; [6]", "result": "no significant change"}, {"measurement": "MyHC-2b expression levels", "setting": "db/db mice [1]; [6]", "result": "no significant change"}, {"measurement": "MyHC-2× expression levels", "setting": "db/db mice [1]; [6]", "result": "no significant change"}, {"measurement": "number of MyHC1 positive myofibres", "setting": "db/db mice [1]; tibialis anterior immunostaining, vs db-Veh", "result": "significant decrease"}, {"measurement": "anti-inflammatory LMs (DHA, HDoHE derivatives, EPA, 5-HEPE)", "setting": "db/db mice [2]", "result": "lowered"}, {"measurement": "pro-inflammatory LMs (arachidonic acid, 11-HETE, 15-HETE)", "setting": "db/db mice [2]", "result": "significantly attenuated"}, {"measurement": "2-arachidonoyl glycerol (2-AG) levels", "setting": "db/db mice [2]; vs db-Veh", "result": "significantly decreased"}, {"measurement": "anandamide (AEA) levels", "setting": "db/db mice [2]; vs db-Veh and WT", "result": "significantly higher"}, {"measurement": "GTT decrease in circulating blood glucose from 30 minutes onwards", "setting": "db/db mice [3]; db/db, 4 weeks, between treatment groups", "result": "non-significant"}, {"measurement": "GTT area under curve", "setting": "db/db mice [3]; db/db, trapezium method, p=0.0021", "result": "significant difference"}, {"measurement": "fasting blood glucose levels", "setting": "db/db mice [3]; overnight fasted db/db, 10 mg/kg/day i.p., 4 weeks, vs vehicle", "result": "significant decrease"}, {"measurement": "SiRT1 activity in cardiac tissue", "setting": "Sirt1", "result": "significant increase"}]}]}
